This is an account of results in US6514971B1, “Cinnoline derivatives and use as medicine” (Zeneca Limited, priority 1996, dated 2003).

For data set [1], the target named is T1, epidermal growth factor (EGF) receptor tyrosine kinase (Homo sapiens, UniProt P00533).
T1 construct: made in house; host or cells: insect cells (baculovirus, as for Flt)
In words: In vitro receptor tyrosine kinase inhibition test (EGF receptor). It counts as biochemical. From the text: (§1) (a) In Vitro Receptor Tyrosine Kinase Inhibition Test
This assay determines the ability of a test compound to inhibit tyrosine kinase activity. DNA encoding VEGF or epidermal growth factor (EGF) receptor cytoplasmic domains may be obtained by total gene synthesis (Edwards M, International Biotechnology Lab 5(3), 19-25, 1987) or by cloning. These may then be expressed in a suitable expression system to obtain polypeptide with tyrosine kinase activity. […] In the case of the VEGF receptor Flt (Genbank accession number X51602), a 1.7 kb DNA fragment encoding most of the cytoplasmic domain, commencing with methionine 783 and including the termination codon, described by Shibuya et al (Oncogene, 1990, 5: 519-524), was isolated from cDNA and cloned into a baculovirus transplacement vector (for example pAcYM1 (see The Baculovirus Expression System: A Laboratory Guide, L. A. King and R. D. Possee, Chapman and Hall, 1992) or pAc360 or pBlueBacHis (available from Invitrogen Corporation)). This recombinant construct was co-transfected into insect cells (for example Spodoptera frugiperda 21 (Sf21)) with viral DNA (eg Pharmingen BaculoGold) to prepare recombinant baculovirus. (Details of the methods for the assembly of recombinant DNA molecules and the preparation and use of recombinant baculovirus can be found in standard texts for example Sambrook et al, 1989. Molecular cloning—A Laboratory Manual, 2nd edition, Cold Spring Harbour Laboratory Press and O'Reilly et al, 1992, Baculovirus Expression Vectors—A Laboratory Manual. W. H. Freeman and Co. New York). For other tyrosine kinases for use in assays, cytoplasmic fragments starting from methionine 806 (KDR, Genbank accession number L04947) and methionine 668 (EGF receptor, Genbank accession number X00588) may be cloned and expressed in a similar manner.
For expression of cFlt tyrosine kinase activity, Sf21 cells were infected with plaque-pure cFlt recombinant virus at a multiplicity of infection of 3 and harvested 48 hours later. Harvested cells were washed with ice cold phosphate buffered saline solution (PBS) (10 mM sodium phosphate pH7.4, 138 mM NaCl, 2.7 mM KCl) then resuspended in ice cold HNTG/PMSF (20 mM Hepes pH7.5, 150 mM NaCl, 10% v/v glycerol, 1% v/v Triton X100. 1.5 mM MgCl2, 1 mM ethylene glycol-bis(βaminoethyl ether) N,N,N′,N′-tetraacetic acid (EGTA), 1 mM PMSF (phenylmethylsulphonyl fluoride); the PMSF is added just before use from a freshly-prepared 100 mM solution in methanol) using 1 ml HNTG/PMSF per 10 million cells. The suspension was centrifuged for 10 minutes at 13.000 rpm at 4° C., the supernatant (enzyme stock) was removed and stored in aliquots at −70° C. Each new batch of stock enzyme was titrated in the assay by dilution with enzyme diluent (100 mM Hepes pH 7.4, 0.2 mM Na3VO4, 0.1% v/v Triton X100, 0.2 mM dithiothreitol). For a typical batch, stock enzyme is diluted 1 in 2000 with enzyme diluent and 50 μl of dilute enzyme is used for each assay well.
(§2) A stock of substrate solution was prepared from a random copolymer containing tyrosine, for example Poly (Glu, Ala, Tyr) 6:3:1 (Sigma P3899), stored as 1 mg/ml stock in PBS at −20° C. and diluted 1 in 500 with PBS for plate coating.
(§3) On the day before the assay 100 μl of diluted substrate solution was dispensed into all wells of assay plates (Nunc maxisorp 96-well immunoplates) which were sealed and left overnight at 4° C.
(§4) On the day of the assay the substrate solution was discarded and the assay plate wells were washed once with PBST (PBS containing 0.05% v/v Tween 20) and once with 50 mM Hepes pH7.4.
Test compounds were diluted with 10% dimethylsulphoxide (DMSO) and 25 μl of diluted compound was transferred to wells in the washed assay plates. “Total” control wells contained 10% DMSO instead of compound. Twenty five microliters of 40 mM MnCl2 containing 8 μM adenosine-5′-triphosphate (ATP) was added to all test wells except “blank” control wells which contained MnCl2 without ATP. […]

The target in data set [2] is T2, VEGF receptor tyrosine kinase (Homo sapiens, UniProt P17948).
T2 construct: encoding most of the cytoplasmic domain, commencing with methionine 783 and including the termination codon; made in house; host or cells: Spodoptera frugiperda Sf21 insect cells (baculovirus); cleared Triton X100 lysate used as enzyme stock
T2 sequence (P17948 781-1338 limits assumed): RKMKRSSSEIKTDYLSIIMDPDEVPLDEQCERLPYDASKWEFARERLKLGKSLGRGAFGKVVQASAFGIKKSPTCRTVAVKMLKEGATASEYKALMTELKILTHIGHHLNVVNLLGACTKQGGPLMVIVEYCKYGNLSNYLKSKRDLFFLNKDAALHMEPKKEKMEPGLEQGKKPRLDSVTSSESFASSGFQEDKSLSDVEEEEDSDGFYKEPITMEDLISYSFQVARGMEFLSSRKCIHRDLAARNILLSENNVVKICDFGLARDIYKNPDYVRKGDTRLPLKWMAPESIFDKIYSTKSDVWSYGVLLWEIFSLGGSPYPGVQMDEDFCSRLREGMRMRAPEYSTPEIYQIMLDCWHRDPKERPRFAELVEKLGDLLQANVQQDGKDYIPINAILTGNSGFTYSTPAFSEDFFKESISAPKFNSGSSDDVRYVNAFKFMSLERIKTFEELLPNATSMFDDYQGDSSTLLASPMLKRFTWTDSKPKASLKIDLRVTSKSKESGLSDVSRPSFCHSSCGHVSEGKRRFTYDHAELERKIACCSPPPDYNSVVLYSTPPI
In words: In vitro receptor tyrosine kinase inhibition test (VEGF receptor). It is filed as biochemical.
Source text: as §1
This assay determines the ability of a test compound to inhibit tyrosine kinase activity. […] These may then be expressed in a suitable expression system to obtain polypeptide with tyrosine kinase activity. […] This recombinant construct was co-transfected into insect cells (for example Spodoptera frugiperda 21 (Sf21)) with viral DNA (eg Pharmingen BaculoGold) to prepare recombinant baculovirus.
For expression of cFlt tyrosine kinase activity, Sf21 cells were infected with plaque-pure cFlt recombinant virus at a multiplicity of infection of 3 and harvested 48 hours later. […] The suspension was centrifuged for 10 minutes at 13.000 rpm at 4° C., the supernatant (enzyme stock) was removed and stored in aliquots at −70° C. Each new batch of stock enzyme was titrated in the assay by dilution with enzyme diluent (100 mM Hepes pH 7.4, 0.2 mM Na3VO4, 0.1% v/v Triton X100, 0.2 mM dithiothreitol). For a typical batch, stock enzyme is diluted 1 in 2000 with enzyme diluent and 50 μl of dilute enzyme is used for each assay well.
as §2, §3, §4
Test compounds were diluted with 10% dimethylsulphoxide (DMSO) and 25 μl of diluted compound was transferred to wells in the washed assay plates. “Total” control wells contained 10% DMSO instead of compound. Twenty five microliters of 40 mM MnCl2 containing 8 μM adenosine-5′-triphosphate (ATP) was added to all test wells except “blank” control wells which contained MnCl2 without ATP. To start the reactions 50 μl of freshly diluted enzyme was added to each well and the plates were incubated at room temperature for 20 minutes. The liquid was then discarded and the wells were washed twice with PBST. […] Plates were then incubated for 20-60 minutes at room temperature until the optical density value of the “total” control wells, measured at 405 nm using a plate reading spectrophotometer, was approximately 1.0.

The structures appear in SMILES notation. Structures can show the parent of a compound that is named as a salt.

T1 sequence (P00533 669-1210 limits assumed): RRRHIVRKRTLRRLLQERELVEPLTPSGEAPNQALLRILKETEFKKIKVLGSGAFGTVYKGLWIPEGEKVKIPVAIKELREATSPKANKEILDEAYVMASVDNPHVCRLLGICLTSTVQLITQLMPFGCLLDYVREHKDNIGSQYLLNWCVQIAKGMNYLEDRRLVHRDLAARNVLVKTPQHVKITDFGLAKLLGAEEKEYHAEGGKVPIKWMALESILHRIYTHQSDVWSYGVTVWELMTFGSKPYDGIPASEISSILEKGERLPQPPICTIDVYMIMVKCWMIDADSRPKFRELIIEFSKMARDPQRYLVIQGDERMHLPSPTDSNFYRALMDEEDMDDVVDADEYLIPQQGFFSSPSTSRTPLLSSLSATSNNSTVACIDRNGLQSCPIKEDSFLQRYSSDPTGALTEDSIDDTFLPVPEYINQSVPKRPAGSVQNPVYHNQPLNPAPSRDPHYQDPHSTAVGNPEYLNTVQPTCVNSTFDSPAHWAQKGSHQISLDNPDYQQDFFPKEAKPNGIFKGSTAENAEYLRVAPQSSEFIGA

`COc1cc2nncc(Nc3cc(O)c(C)cc3F)c2cc1OC` (as salt: hydrochloride) [Example 21, 4-(2-fluoro-5-hydroxy-4-methylanilino)-6,7-dimethoxycinnoline] gave a melting point of 251 to 253 °C.

Turning to `COCCOc1cc2nncc(Oc3cc(O)c(C)cc3F)c2cc1OC` [Example 20, 4-(2-fluoro-5-hydroxy-4-methylphenoxy)-6-methoxy-7-(2-methoxyethoxy)cinnoline], the melting point fell in the range of 267 to 273 °C. Still for that read-out and setting: next, `COc1cc2nncc(Nc3ccc(C)c(O)c3)c2cc1OC` [Example 1, 4-(3-hydroxy-4-methylanilino)-6,7-dimethoxycinnoline]: 240 to 244 °C; `COc1cc2c(Nc3cc(O)c(Cl)cc3F)cnnc2cc1OCCCN1CCCC1` (as salt: hydrochloride) [Example 13, 4-(4-chloro-2-fluoro-5-hydroxyanilino)-6-methoxy-7-(3-pyrrolidinopropoxy)cinnoline]: 240 to 245 °C.

Turning to `COc1cc2c(Nc3cc(O)c(C)cc3F)cnnc2cc1OCCCN1CCOCC1` [Example 15, 4-(2-fluoro-5-hydroxy-4-methylanilino)-6-metboxy-7-(3-morpholinopropoxy)cinnoline], the “activity against epidermal growth factor (EGF) receptor tyrosine kinase” value (shortened to “activity against epidermal growth factor”) in data set [1] is recorded as “lack of significant activity”. The “activity against VEGF receptor tyrosine kinase” value in data set [2] is recorded as “good activity”. `COCCOCCOc1cc2nncc(Nc3cc(O)c(C)cc3F)c2cc1OC` (as salt: hydrochloride) [Example 23, 4-(2-fluoro-5-hydroxy-4-methylanilino)-6-methoxy-7-[2-(2-methoxyethoxy)ethoxy]cinnoline]: the melting point fell in the range of 250 to 256 °C. The same measure, in the same setting: next, `COc1ccc2c(Nc3ccc(C)c(O)c3)cnnc2c1` (as salt: hydrochloride) [Example 14, 4-(3-hydroxy-4-methylanilino)-7-methoxycinnoline]: 270 to 275 °C. The same measure, in the same setting: under `COc1cc2c(Nc3cc(O)c(C)cc3F)cnnc2cc1OCc1nccn1C.Cl` stands 215 to 221 °C; under `COc1cc2c(Nc3cc(O)c(Cl)cc3F)cnnc2cc1OCc1ccncc1` (as salt: hydrochloride) [Example 10, 4-(4-chloro-2-fluoro-5-hydroxyanilino)-6-methoxy-7-(4-pyridylmethoxy)cinnoline], 243 to 251 °C; under `COCCOc1cc2nncc(Nc3cc(O)c(C)cc3F)c2cc1OC` (as salt: hydrochloride) [Example 11, 4-(2-fluoro-5-hydroxy-4-methylanilino)-6-methoxy-7-(2-methoxyethoxy)cinnoline], 283 to 290 °C. Regarding `COc1cc2c(Nc3cc(O)c(C)cc3F)cnnc2cc1OCc1ccncc1.Cl`, the melting point was in the range of 244 to 252 °C. On the same count and under the same terms, under `COc1cc2c(Nc3cc(OC(C)=O)c(Cl)cc3F)cnnc2cc1OCc1ccccc1` (as salt: hydrochloride) [Example 7, 4-(5-acetoxy-4-chloro-2-fluoroanilino)-7-benzyloxy-6-methoxycinnoline] stands 240 to 247 °C; under `COCCOc1cc2nncc(Nc3ccc(Br)cc3F)c2cc1OC` (as salt: hydrochloride) [Example 5, 4-(4-bromo-2-fluoroanilino)-6-methoxy-7-(2-methoxyethoxy)cinnoline], 278 to 281 °C. Consider `COCCOc1cc2nncc(Nc3cc(O)c(Cl)cc3F)c2cc1OC` [Example 8, 4-(4-chloro-2-fluoro-5-hydroxyanilino)-6-methoxy-7-(2-methoxyethoxy)cinnoline], for which the “activity against epidermal growth factor” value in data set [1] is “lack of significant activity”. Moreover, in data set [2], the “activity against VEGF receptor tyrosine kinase” value was “good activity”.

As to `COCCOc1cc2nncc(Nc3cc(O)c(Br)cc3F)c2cc1OC` [Example 9, 4-(4-bromo-2-fluoro-5-hydroxyanihno)-6-methoxy-7-(2-methoxyethoxy)cinnoline], the “activity against epidermal growth factor” value in data set [1] is listed as “lack of significant activity”. For the same molecule, in data set [2], the “activity against VEGF receptor tyrosine kinase” value is “good activity”. On the same counts, the results for `COc1cc2c(Nc3cc(O)c(C)cc3F)cnnc2cc1OCc1nccn1C` [4-(2-fluoro-5-hydroxy-4-methylanilino)-6-methoxy-7-[(1-methylimidazol-2-yl)methoxy]cinnoline] are “lack of significant activity” and “good activity”. Molecule `COc1cc2nncc(Nc3cc(O)c(Cl)cc3F)c2cc1OC` (as salt: hydrochloride) [Example 22, 4-(4-chloro-2-fluoro-5-hydroxyanilino)-6,7-dimethoxycinnoline] yielded a melting point of 255 to 256 °C. Still for that read-out and setting: under `COc1cc2c(Nc3cc(O)c(Cl)cc3F)cnnc2cc1OCCCN1CCOCC1` (as salt: hydrochloride) [Example 12, 4-(4-chloro-2-fluoro-5-hydroxyanilino)-6-methoxy-7-(3-morpholinopropoxy)cinnoline] stands 218 to 225 °C; under `COc1cc2c(Nc3cc(O)c(Cl)cc3F)cnnc2cc1OCc1ccccc1` (as salt: hydrochloride) [Example 6, 7-benzyloxy-4-(4-chloro-2-fluoro-5-hydroxyanilino)-6-methoxycinnoline], 280 to 284 °C.
